How the values were obtained:
[1] = target: T1, MMP-1 (Homo sapiens, UniProt P03956); experiment: Determination of inhibition constant (Ki) for MMP-1, fluorogenic substrate; type: biochemical; details: footnote: results are identical for MMP-1, MMP-2, MMP-3, MMP-13 and MMP-14, read-out: MMP Ki app
T1 construct: The active MMP-1 was obtained by treatment of proMMP-1 with trypsin; endogenous in cells; host or cells: human rheumatoid synovial fibroblasts stimulated with macrophage-conditioned medium (secreted proenzyme purified from the medium)
T1 sequence (P03956 100-469): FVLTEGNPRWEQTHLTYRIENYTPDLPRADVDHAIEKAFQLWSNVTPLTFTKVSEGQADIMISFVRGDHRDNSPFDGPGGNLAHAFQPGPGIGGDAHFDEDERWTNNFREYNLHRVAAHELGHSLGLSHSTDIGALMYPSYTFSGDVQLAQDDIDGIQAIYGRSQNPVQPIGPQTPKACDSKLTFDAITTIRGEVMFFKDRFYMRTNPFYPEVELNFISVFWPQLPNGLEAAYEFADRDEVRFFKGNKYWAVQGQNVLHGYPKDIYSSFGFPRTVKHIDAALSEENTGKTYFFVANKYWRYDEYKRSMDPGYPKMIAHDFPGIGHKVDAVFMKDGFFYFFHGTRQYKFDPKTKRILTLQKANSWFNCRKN
Description: ProMMP-1 (EC 3.4.24.7; interstitial collagenase) was purified from culture medium of human rheumatoid synovial fibroblasts stimulated with macrophage-conditioned medium according to Okada, Y. et al., J. Biol. Chem. 261, 14245-14255 (1986). The active MMP-1 was obtained by treatment of proMMP-1 with trypsin (5 μg/mL) at 37° C. for 30 minutes, followed by addition of soybean trypsin inhibitor (50 μg/mL).
Determination of Inhibition Constant (Ki) for MMP-1 The activated MMP-1 is assayed using a fluorogenic substrate, Mca-Pro-Leu-Gly-Leu-Dpa-Ala-Arg-NH2, Knight, C. G. et al., FEBS Lett. 296, 263-266 (1992), at 37° C. in 2.0 mL of assay buffer containing 50 mM Tris, pH 7.6, 0.2 M sodium chloride, 50 mM calcium chloride, and 0.02% Brij-35. The increase in fluorescence due to cleavage of Gly-Leu peptide bond by MMP-3 was monitored with Perkin-Elmer LS50B Fluorimeter (λex328 nm, λem 393 nm, excitation slit 2.5, emission slit 10). Substrate and inhibitor stock solutions were made in DMF. For determination of Ki values for MMP-1 inhibitors, a series of intermediate inhibitor solutions were prepared in DMF and 1 or 2 μL of the diluted inhibitor solution was mixed with 1 μL of 2 mM substrate solution in DMF in a quartz cuvette containing 2 mL of assay buffer. The enzyme (10 μL of 0.2 μM MMP-3 dilution in assay buffer) was added at the last to start the reaction. For routine measurement of a Ki value for a reversible, competitive inhibitor, the initial rates in the presence of at least four inhibitor concentrations (two concentrations above Ki and two concentrations below Ki) were measured using [S]=1 μM (<<Km) and [MMP-1]=0.8 nM. Under these conditions, the measured Ki app is close to true Ki.
The Ki for a competitive inhibitor is calculated using: v0/vi=(1+[I]/Ki, app) and Ki=Ki, app/(1+[S]/Km), where v0 is the initial rate in the absence of inhibitor, vi is the initial rate in the presence of inhibitor at the concentration of [I], [S] is the substrate concentration, and Km is the Michaelis constant. If slow binding is observed (i.e. if the approach to the binding equilibrium is slow), the final steady-state rate rather than the initial rate is taken as vi.

[2] = target: MMP-8 (Homo sapiens, UniProt P22894); experiment: MMP-8 enzyme activity, quenched fluorigenic substrate, 96 well plate; type: biochemical; details: read-out: MMP-8 Ki app
Description: The MMP-8 data was determined according to Knight C. G. et al., Febs Lett, 296, 263-266 (1992), “A novel coumarin-labelled peptide for sensitive continuous assays of the matrix metalloproteinases” in the modification of K. U. Weithmann et al., Inflamm. Res. 46 (7), 246-252 (1997), “Effects of tiaprofenic acid on urinary pyridinium crosslinks in adjuvant arthritic rats: Comparison and doxycycline effects on human matrix metalloproteinases and cellular cytokine generation in vitro” as follows:
Enzyme activity of MMP was determined in 96 well titer plate format in a luminescence spectrometer (LS 50B, Perkin Elmer, Langen, FRG), using the quenched fluorigenic substrate 7-methoxycoumarin-4-yl) acetyl-pro-leu-gly-leu-3-(2′,4′-dinitrophenyl)-L-2,3-diaminopropionyl-ala-arg-NH2 (λex=328 nm, λem=393 nm), available from Bachem, Heidelberg, FRG. Each well contained: 70 μl buffer (0.1 mol/l tris/HCl, pH=7.5; 0.1 mol/l NaCl; 0.01 mol/l CaCl2,0.05% Brij 35™), 10 μl enzyme, and 10 μl drug in 10%DMSO. After preincubation for 15 min at room temperature the reaction was started by addition of 10 μl substrate (1 mmol/l in 10% DMSO). Initial velocity of enzymatic reaction was determined without drug (=100%) or, resp. with different drug concentrations.

Chain of MMP-8 (P22894 101-467): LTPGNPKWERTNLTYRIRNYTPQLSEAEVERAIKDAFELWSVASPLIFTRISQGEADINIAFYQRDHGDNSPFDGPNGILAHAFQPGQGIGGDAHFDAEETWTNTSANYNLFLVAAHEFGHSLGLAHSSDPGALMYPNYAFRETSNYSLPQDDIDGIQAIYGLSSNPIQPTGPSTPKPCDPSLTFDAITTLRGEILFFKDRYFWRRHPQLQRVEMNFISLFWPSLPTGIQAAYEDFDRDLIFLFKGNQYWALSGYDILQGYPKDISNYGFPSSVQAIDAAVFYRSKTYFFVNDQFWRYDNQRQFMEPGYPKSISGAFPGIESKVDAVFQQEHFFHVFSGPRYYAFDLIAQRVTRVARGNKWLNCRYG

| SMILES | Ki [1] | Ki [2] |
| --- | --- | --- |
| CNC(=O)[C@H](Cc1ccc(O)cc1)NC(=O)[C@@H]1[C@@H](Cc2ccccc2)CCN1C(=O)[C@@H](S)C(C)C [Compound 1a, (2S,3S)-3-Benzyl-1-((S)-2-mercapto-3-methyl-butanoyl)-pyrrolidine-2-carboxylic acid [(S)-2-(4-hydroxy-phenyl)-1-methylcarbamoyl-ethyl]-amide] | > 10 µM | > 10 µM |
| CNC(=O)[C@H](Cc1ccc(O)cc1)NC(=O)[C@@H]1[C@H](Cc2ccccc2)CCN1C(=O)[C@@H](S)C(C)C [Compound 1b, (2S,3R)-3-Benzyl-1-((S)-2-mercapto-3-methyl-butanoyl)-pyrrolidine-2-carboxylic acid [(S)-2-(4-hydroxy-phenyl)-1-methylcarbamoyl-ethyl]-amide] | > 10 µM | 3 µM |
| CNC(=O)[C@H](Cc1cccnc1)NC(=O)[C@@H]1[C@@H](Cc2ccccc2)CCN1C(=O)[C@@H](S)C(C)C [Compound 1c, (2S,3S)-3-Benzyl-1-((S)-2-mercapto-3-methyl-butanoyl)-pyrrolidine-2-carboxylic acid ((S)-1-methylcarbamoyl-2-pyridin-3-yl-ethyl)-amide] | > 10 µM | 9 µM |
| CNC(=O)[C@H](Cc1cccnc1)NC(=O)[C@@H]1[C@H](Cc2ccccc2)CCN1C(=O)[C@@H](S)C(C)C [Compound 1d, (2S,3R)-3-Benzyl-1-((S)-2-mercapto-3-methyl-butanoyl)-pyrrolidine-2-carboxylic acid ((S)-1-methylcarbamoyl-2-pyridin-3-yl-ethyl)-amide] | > 10 µM | 4 µM |
| CNC(=O)[C@@H](Cc1cccnc1)NC(=O)[C@@H]1[C@@H](Cc2ccccc2)CCN1C(=O)[C@@H](S)C(C)C [Compound 1e, (2S,3S)-3-Benzyl-1-((S)-2-mercapto-3-methyl-butanoyl)-pyrrolidine-2-carboxylic acid ((R)-1-methylcarbamoyl-2-pyridin-3-yl-ethyl)-amide] | > 10 µM | > 10 µM |

The remaining lines, values ahead:

| Ki [1] | Ki [2] | SMILES |
| --- | --- | --- |
| > 10 µM | > 10 µM | CNC(=O)[C@@H](Cc1cccnc1)NC(=O)[C@@H]1C(Cc2ccccc2)CCN1C(=O)[C@@H](S)C(C)C (stereo in doubt) [Compound 1f, (2S,3S)-3-Benzyl-1-((S)-2-mercapto-3-methyl-butanoyl)-pyrrolidine-2-carboxylic acid ((R)-1-methylcarbamoyl-2-pyridin-3-yl-ethyl)-amide] |
| > 10 µM | > 10 µM | CNC(=O)[C@@H](NC(=O)[C@@H]1[C@@H](Cc2ccccc2)CCN1C(=O)[C@@H](S)C(C)C)C(C)(C)C [Compound 1g, (2S,3S)-3-Benzyl-1-((S)-2-mercapto-3-methyl-butanoyl)-pyrrolidine-2-carboxylic acid ((S)-2,2-dimethyl-1-methylcarbamoyl-propyl)-amide] |
| > 10 µM | 3 µM | CNC(=O)[C@@H](NC(=O)[C@@H]1[C@H](Cc2ccccc2)CCN1C(=O)[C@@H](S)C(C)C)C(C)(C)C [Compound 1h, (2S,3R)-3-Benzyl-1-((S)-2-mercapto-3-methyl-butanoyl)-pyrrolidine-2-carboxylic acid ((S)-2,2-dimethyl-1-methylcarbamoyl-propyl)-amide] |

Reference: US6486193B2, “3-substituted pyrrolidines useful as inhibitors of matrix metalloproteinases” (Aventis Pharmaceuticals Inc., priority 1998, dated 2002)
